Results taken from patent publication US20230172940A1, “METHODS OF EXTENDING LIFESPAN BY ADMINISTERING FERROPTOSIS INHIBITORS” (COLLABORATIVE MEDICINAL DEVELOPMENT, LLC, priority 2020, published 2023).
Structures can show the parent of a compound that is named as a salt.

How the values were obtained:
[1] = test system: C. elegans strain TJ1060; assay: Glutathione depletion: survival after diethyl maleate (DEM) exposure; assay type: in vivo, Caenorhabditis elegans; details: for DEM toxicity (survival): 4-day old worms, 200 μM Lip-1 or 250 μM SIH from late L4
Description: Diethyl maleate (DEM; Sigma-Aldrich) was added to neat DMSO and added to molten NGM at 55° C. to a final concentration of 5^o 10^o 15 or 20 mM DEM and 0.5% v/v DMSO. Plates were seeded with OP50 and used within 24 hours. As above^o data was collected at 25 (±1) ° C. using the temperature sensitive-sterile strain TJ1060. A synchronous population was obtained by transferring egg-laying adults to fresh plates at 16° C. for 2-3 hours. The adults were removed and the plates with eggs then transferred to 25° C. to ensure sterility. After 48 hours at 25° C.^o when worms were at the late L4/young adult stage^o 25-35 nematodes were transferred to fresh plates containing either vehicle control^o 250 μM SIH^o or 200 μM Lip-1. Worms were aged at 25° C. for a further 4 days and then transferred to DEM plates. Survival^o determined by touch-provoked movement^o was scored at 24 and 48 hours after exposure to DEM.
Aging studies were also undertaken to determine changes with age of both survival after DEM exposure and basal glutathione levels. Initial populations were obtained as describe above^o with worms aged on standard NGA plates. Note that here we refer to the age of adults as determined by the number of days following the last larval molt and therefore reflects the number of days of adulthood^o not the time since egg.
For survival with increasing DEM dose response and protection by compounds (Lip-1 and SIH), data was plotted as fraction of animal alive with upper and lower 95% confidence interval, using the Wilson ‘score’ method using asymptotic variance and fitted with a sigmoidal curve (Prism). Pairwise comparisons of treated groups versus control at each concentration of DEM was determined using the N-1 chi-squared test.

[2] = test system: Fe^2+/Fe(total) in anterior intestinal cells; assay: XANES imaging of iron speciation; assay type: in vivo, Caenorhabditis elegans; details: for age-related increase in the Fe^2+ fraction: anterior intestinal region
Description: Adult C. elegans were removed from NGM, washed four times in excess ice-cold S-basal (0.1 M NaCl; 0.05 M KHPO4 at pH 6.0). Samples were transferred onto 0.5 μm-thick silicon nitride (Si3N4) window (Silson), excess buffer wicked away and then the slide was frozen in situ under a laminar stream of 100° K. dry nitrogen (N2) gas.
The beam energy was selected using a Si(311) double-crystal monochromator with a resolution of ˜0.5 eV. !XANES imaging was achieved by recording Fe XRF at 106 incident energies spanning the Fe Kedge (7112 eV). Measurement energy interval was commensurate with anticipated structure in the XANES:
As for XFM, !XANES measurements used a beam spot ^˜2×2 jim but data was recorded using continuous scanning at 0.2 mm sec^−1 (binned at 2 jim intervals). Transit time through each virtual pixel was 10 ms and the incident X-ray intensity at 7455 eV was ^˜1.67×10^10 photons s^−1. These imaging parameters gave a total dose associated with the qXANES measurement estimated at ^˜5 MGy. This value is commensurate with doses typically delivered during bulk X-ray absorption spectroscopy. qXANES Analysis
The XANES spectra from an iron foil (50.1 jig cm^−2, Micromatter Canada) was measured to monitor the energy calibration of the beamline. The maxima of the first peak in the derivative spectra of the iron foil was subsequently defined as 7112.0 eV. The energy stability of beamline has been determined at <0.25 eV over 24 hrs making energy drift over the course of a scan negligible. Consistency of the measured edge positions in conjunction with stability of beam position and flux recorded in ion chambers upstream the specimen position provide confidence that energy stability was high through the duration of the experiment. Small position drifts were aligned by cross-correlation of the calcium map which remains essentially constant throughout the energy series.
The aligned qXANES image series is stack of images, one per incident energy allowing the XANES of individual cells to be assessed. Previous work has shown that the distribution of calcium is a useful marker for the position of C. elegans intestinal cells, and we used this information to identify regions of interest in the qXANES stack corresponding to anterior intestinal cells. Anterior intestinal cells were chosen due to their consistent and robust iron content.
As all points on the specimen represent a heterogenous mixture of iron binding species the resulting XANES spectra are admixtures with contributions from all of these components. The technical particulars of the XFM beamline (being primarily designed for elemental mapping) are not optimized for high resolution spectroscopy and our XANES spectra are relatively sparse. For iron K-edge XANES the abrupt increase in absorption coefficient at the critical threshold obscures the presence of […] and 1s→4p electronic transitions. It has been shown that the relative intensity of these transitions provides the proportional contribution of Fe^2+ and Fe^3+ to the XANES and can be assessed by interrogating the first derivative of the XANES spectra.

[3] = TJ1060, Day 8, anterior intestinal cells
[4] = aged animals under intervention

| SMILES | lethality ([1]; 10 mM DEM, 24-hour exposure, 4-day old adult worms) | death of adult worms ([1]; DEM≥1 mM, 4-day old adult worms, dose- and time-dependent) | Fe^2+ fraction of the total iron ([2]; 4 day old wild type worms, lethal glutathione depletion by DEM) | Mean Fe^2+/Fe(total) ([2]; N2, Day 4 + DEM) | Fe^2+/Fe(total) ([2]; wild type (N2) animals treated with DEM) | DEM toxicity (survival) [1] | Mean Fe^2+/Fe(total) [2, 3] | Fe^2+ fraction of the total iron [2, 4] | age-related increase in the Fe^2+ fraction [2] |
| --- | --- | --- | --- | --- | --- | --- | --- | --- | --- |
| CCOC(=O)/C=C\C(=O)OCC [DEM, Diethyl maleate] | ≈ 50% | induced death | about 0.3 | 0.310 | markedly increased |  |  |  |  |
| O=C(N/N=C/c1ccccc1O)c1ccncc1 [SIH, Salicylaldehyde isonicotinoyl hydrazone] |  |  |  |  |  | rescued | 0.236 | ≈ 0.2 | normalized to that of a young animal |
| Clc1cccc(CNC2=Nc3ccccc3NC23CCNCC3)c1 [Lip-1, N-[(3-chlorophenyl)methyl]-spiro[piperidine-4,2′(1′H)-quinoxalin]-3′-amine] |  |  |  |  |  | rescued | 0.231 | ≈ 0.2 | normalized to that of a young animal |
